Results published in ChEMBL document CHEMBL5465560, “Selectivity Literature for EUbOPEN Chemogenomic Library” (2024).
Each block holds one compound with its values, some of them ahead of it.

Experiments:
[1] = target: T1, Phosphorylase b kinase gamma catalytic chain, liver/testis isoform (Homo sapiens) (UniProt P15735); assay: Selectivity interaction (KinomeScan (DiscoverX)) EUB0001079a PHKG2; conditions: at 1 µM
T1 sequence (whole entry): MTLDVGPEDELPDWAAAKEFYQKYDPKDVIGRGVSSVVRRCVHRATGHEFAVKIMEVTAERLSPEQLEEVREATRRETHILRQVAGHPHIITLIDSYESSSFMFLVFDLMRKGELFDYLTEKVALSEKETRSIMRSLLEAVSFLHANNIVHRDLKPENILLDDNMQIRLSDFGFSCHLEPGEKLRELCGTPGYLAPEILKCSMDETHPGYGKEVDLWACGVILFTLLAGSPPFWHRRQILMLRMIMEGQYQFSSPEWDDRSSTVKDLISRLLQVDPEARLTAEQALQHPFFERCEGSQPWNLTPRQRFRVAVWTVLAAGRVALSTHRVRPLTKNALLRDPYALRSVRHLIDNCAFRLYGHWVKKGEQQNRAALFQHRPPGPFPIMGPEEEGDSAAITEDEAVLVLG

[2] = target: T2, Serine/threonine-protein kinase BRSK1 (Homo sapiens) (UniProt Q8TDC3); assay: Selectivity interaction (KinomeScan (DiscoverX)) EUB0001619a BRSK1; conditions: at 1 µM
T2 sequence (whole entry): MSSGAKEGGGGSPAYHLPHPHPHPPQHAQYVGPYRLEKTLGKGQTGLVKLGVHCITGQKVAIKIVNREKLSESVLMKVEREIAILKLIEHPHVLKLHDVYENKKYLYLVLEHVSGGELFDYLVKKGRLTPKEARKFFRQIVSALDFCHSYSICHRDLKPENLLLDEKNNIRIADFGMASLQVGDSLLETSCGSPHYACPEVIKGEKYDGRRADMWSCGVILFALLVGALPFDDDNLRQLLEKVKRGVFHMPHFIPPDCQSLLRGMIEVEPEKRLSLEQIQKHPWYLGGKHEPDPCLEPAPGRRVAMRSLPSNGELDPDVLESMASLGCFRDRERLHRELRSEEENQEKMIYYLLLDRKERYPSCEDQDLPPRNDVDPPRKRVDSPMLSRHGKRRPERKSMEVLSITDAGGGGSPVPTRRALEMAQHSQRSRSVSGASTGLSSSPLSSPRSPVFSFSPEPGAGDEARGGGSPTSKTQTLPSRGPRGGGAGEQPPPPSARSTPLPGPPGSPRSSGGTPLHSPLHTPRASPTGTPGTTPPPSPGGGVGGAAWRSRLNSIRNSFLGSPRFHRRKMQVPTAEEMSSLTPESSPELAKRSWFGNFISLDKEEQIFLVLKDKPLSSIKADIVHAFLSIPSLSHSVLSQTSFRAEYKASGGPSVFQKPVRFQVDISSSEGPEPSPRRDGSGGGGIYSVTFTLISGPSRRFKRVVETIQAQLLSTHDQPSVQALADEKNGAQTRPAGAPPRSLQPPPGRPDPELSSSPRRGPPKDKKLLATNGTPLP

[3] = target: Dual specificity protein kinase CLK3 (Homo sapiens, UniProt P49761); conditions: at 1 µM
Sequence of Dual specificity protein kinase CLK3 (P49761 whole entry, looked up, canonical isoform): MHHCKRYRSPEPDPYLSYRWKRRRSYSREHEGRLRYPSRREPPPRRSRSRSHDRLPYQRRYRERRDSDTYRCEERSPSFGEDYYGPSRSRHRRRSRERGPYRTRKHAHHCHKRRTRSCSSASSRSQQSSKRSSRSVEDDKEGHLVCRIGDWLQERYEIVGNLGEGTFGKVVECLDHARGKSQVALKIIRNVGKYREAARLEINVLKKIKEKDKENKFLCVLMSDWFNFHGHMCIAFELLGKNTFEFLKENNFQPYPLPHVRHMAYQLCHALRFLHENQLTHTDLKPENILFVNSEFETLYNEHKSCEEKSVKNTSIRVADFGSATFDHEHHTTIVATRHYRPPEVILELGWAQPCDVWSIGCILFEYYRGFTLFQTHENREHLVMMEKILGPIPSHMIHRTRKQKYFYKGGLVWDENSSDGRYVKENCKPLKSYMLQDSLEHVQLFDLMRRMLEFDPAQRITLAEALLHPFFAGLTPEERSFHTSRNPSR

[4] = target: Casein kinase I isoform delta (Homo sapiens, UniProt P48730); assay: Selectivity interaction (ActivX KiNativ screen (kinase selectivity in THP-1 cell lysates)) EUB0000639a CSNK1D; format: subcellular; conditions: lysate
Sequence of Casein kinase I isoform delta (P48730 whole entry, looked up, canonical isoform): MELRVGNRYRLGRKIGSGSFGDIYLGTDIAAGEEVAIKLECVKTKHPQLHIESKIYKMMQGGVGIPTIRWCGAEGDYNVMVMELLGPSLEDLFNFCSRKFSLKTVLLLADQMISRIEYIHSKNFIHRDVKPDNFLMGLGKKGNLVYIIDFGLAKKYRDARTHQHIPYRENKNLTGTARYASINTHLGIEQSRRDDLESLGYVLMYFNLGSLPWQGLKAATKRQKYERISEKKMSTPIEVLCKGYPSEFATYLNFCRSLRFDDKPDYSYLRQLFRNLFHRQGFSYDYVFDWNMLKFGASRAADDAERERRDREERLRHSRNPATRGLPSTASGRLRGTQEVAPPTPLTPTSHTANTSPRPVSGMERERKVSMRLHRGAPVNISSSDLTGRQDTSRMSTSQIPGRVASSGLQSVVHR

[5] = target: Mitogen-activated protein kinase 7 (Homo sapiens) (UniProt Q13164); assay: Selectivity interaction (KinomeScan (DiscoverX)) EUB0000666a MAPK7; conditions: at 10 µM
Sequence of Mitogen-activated protein kinase 7 (Homo sapiens) (Q13164 2-816 limits assumed): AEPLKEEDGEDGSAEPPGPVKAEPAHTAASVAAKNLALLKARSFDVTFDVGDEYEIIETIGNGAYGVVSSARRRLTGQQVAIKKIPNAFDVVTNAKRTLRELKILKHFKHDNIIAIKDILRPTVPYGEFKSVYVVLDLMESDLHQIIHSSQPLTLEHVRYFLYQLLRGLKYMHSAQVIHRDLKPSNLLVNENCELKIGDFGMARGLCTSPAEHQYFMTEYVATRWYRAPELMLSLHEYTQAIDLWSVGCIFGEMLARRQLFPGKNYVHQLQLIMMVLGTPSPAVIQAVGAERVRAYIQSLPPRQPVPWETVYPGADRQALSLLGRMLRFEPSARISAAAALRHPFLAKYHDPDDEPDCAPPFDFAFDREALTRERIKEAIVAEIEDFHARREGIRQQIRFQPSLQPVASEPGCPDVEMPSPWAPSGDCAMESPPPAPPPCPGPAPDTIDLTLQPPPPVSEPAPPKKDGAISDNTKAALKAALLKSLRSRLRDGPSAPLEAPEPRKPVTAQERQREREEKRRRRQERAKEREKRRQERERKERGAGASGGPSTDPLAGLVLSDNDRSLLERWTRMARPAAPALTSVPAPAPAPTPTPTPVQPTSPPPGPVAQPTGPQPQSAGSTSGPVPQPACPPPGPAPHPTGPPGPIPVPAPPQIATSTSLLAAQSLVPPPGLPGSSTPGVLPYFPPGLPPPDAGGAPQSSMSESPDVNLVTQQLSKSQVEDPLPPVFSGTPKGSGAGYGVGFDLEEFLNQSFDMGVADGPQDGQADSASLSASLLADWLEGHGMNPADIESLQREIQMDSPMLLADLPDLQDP

[6] = target: T3, Ephrin type-B receptor 4 (Homo sapiens) (UniProt P54760); assay: Selectivity interaction (KinomeScan (DiscoverX)) EUB0000666a EPHB4; conditions: at 10 µM
T3 sequence (whole entry): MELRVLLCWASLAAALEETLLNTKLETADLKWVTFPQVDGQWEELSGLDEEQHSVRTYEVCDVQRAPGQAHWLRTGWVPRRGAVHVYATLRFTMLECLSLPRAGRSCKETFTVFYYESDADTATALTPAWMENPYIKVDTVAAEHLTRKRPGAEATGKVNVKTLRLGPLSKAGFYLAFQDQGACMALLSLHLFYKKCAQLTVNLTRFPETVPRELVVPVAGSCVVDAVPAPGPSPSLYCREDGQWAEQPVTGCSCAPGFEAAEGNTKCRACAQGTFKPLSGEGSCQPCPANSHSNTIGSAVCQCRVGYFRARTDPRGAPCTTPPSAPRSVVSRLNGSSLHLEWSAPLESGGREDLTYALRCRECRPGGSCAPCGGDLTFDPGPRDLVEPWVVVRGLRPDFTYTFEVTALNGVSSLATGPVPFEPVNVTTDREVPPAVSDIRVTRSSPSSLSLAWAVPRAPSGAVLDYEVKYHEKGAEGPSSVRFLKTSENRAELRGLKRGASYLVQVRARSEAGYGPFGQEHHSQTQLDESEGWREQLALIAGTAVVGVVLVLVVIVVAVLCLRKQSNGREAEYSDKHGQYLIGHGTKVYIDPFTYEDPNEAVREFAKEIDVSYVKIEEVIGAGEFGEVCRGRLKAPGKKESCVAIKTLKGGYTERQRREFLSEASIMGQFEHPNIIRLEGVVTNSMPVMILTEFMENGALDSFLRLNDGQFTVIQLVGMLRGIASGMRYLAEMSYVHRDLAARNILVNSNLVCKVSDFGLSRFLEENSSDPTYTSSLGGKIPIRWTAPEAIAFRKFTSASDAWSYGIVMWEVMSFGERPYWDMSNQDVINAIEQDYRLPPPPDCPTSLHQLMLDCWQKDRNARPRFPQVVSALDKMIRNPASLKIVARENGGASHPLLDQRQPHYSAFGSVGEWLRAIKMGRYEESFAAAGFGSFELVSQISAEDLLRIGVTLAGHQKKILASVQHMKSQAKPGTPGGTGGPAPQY

SMILES: Nc1cnc(N2CCc3cc(S(=O)(=O)Nc4c(F)cc(Cl)cc4F)cc(N4CCCC4=O)c32)nc1 [TP-020n]
% of control [1]: 100%

SMILES: N#Cc1cccc(-c2c[nH]c3ncnc(N4CCOCC4)c23)c1
% of control [2]: 100%

% of inhibition [3]: 24%
SMILES: Cc1ccc(-c2ccc3c(ccc4sc5c(c43)NC[C@@H](C)NC5=O)n2)cn1

% of inhibition ([4]; at 0.01 µM): -6.6% | % of inhibition ([4]; at 0.04 µM): 20.3% | % of inhibition ([4]; at 0.2 µM): 53% | % of inhibition ([4]; at 1 µM): 77.8% | % of inhibition ([4]; at 5 µM): 94.8%
SMILES: CC[C@@H]1[C@H](F)C(=O)N[C@@H]1COc1nccc2cc(C(N)=O)c(OC)cc12 [ZIMLOVISERTIB]

SMILES: O=C(NOC[C@H](O)CO)c1ccc(F)c(F)c1Nc1ccc(I)cc1F
% of control [5]: 88% | % of control [6]: 100%
